Results reported in patent publication EP1276895B1, “METHOD FOR THE IDENTIFICATION OF ACTIVE SITE PROTEASE INACTIVATORS” (THE UNIVERSITY OF GEORGIA RESEARCH FOUNDATION, INC., priority 2000, dated 2001).
Starred links: 1 amine or outer side, 2 acyl side, 3 side chain; linkers in the order of their positions; H or OH if unused. Residues, ends and D or L forms follow the SMILES beside them. *: point of attachment. AFC = O=c1cc(C(F)(F)F)c2ccc(N*)cc2o1; Suc = O=C(CCC(=O)[*:2])[*:1]; Cbz = O=C(OCc1ccccc1)*; Boc = CC(C)(C)OC(=O)*

Assays:
[1] = system: purified Taenia solium cysteine protease; assay: Competitor assay of low Vmax substrates (vehicles) against high Vmax substrate cocktails (Step III), purified protease; type: biochemical; conditions: purified protease; for V Value: V = P * M, P = inhibition with first (1.4%) cocktail, M = inhibition with last (7.4%) cocktail, vehicle 8X10^-6M, each cocktail substrate 1X10^-6 M
Procedure: (We employed "Vmax" here although Kcat could also be used). Due to the lower number of substrates, a percentage was not chosen for the "BOTTOM %" " substrates. Alternately, all substrates which were not cleaved as determined by a value of 10 uM/hr or less, were chosen to be tested in this step for competitive ability. From this point forth, the term "vehicle" will represent low Vmax substrates that were capable of inhibiting cleavage of the percent cocktails. In this instance, we tested for "vehicles" which inhibited cleavage of the TOP 1.4% cocktail (they were delivered into the active site). Based upon our results from Step II, the top 1.4% cocktail was composed of Z-Phe-Arg-AFC, the highest cleaved substrate.
(§1) The experiment began with a competitor test between the noncleaved low Vmax substrates and the highest Vmax substrate, Z-Phe-Arg-AFC. Concentrations were varied between the low Vmax substrate and Z-Phe-Arg-AFC, as described above under "refinement of assay" until a relative inhibition profile was obtained.
The mixture was allowed to equilibrate for a period of 30 minutes. Finally, active purified enzyme was added to the tubes at a concentration which was always 50 times less than the concentration of the high and low Vmax substrates, in order to insure saturation conditions. This concentration varied from purification to purification and the amount added depended upon the yield and specific activity of the purified protease.
Positive controls were set up similarly as described for test controls, except that solvent was added in substitution for the low Vmax substrate (in a volume equal to the low Vmax volume addition). All of the substrates could be dissolved in dimethylsulfoxide (DMSO), and therefore, this was the solvent of choice. Negative controls were set up by adding the low Vmax and the high Vmax substrate in a tube without the protease. All potential non-proteolytic induced liberation of AFC was therefore controlled for in this tube (a feature which also insured stability of the AFC substrates, since these substrates will freely liberate AFC when unstable). A tube set will be established for this negative control.
All controls were set up in triplicate, and experiments repeated a minimum of five times. The assays were incubated at 37°C, for 18 hours overnight.
(§2) Percent inhibition was calculated as: %Inhibition =; ((AFC positive for"Y"-AFC negative for"Y")-(AFC test-AFC negative for"Y")X100)/(AFC positive for "Y"-AFC negative for "Y") [formula]
A 2.9% cocktail of the high Vmax substrates was made. This was composed of Z-FR-AFC and the second most cleaved substrate, Z-FAR-AFC. The vehicles promoted from the initial screenings above were again tested for competitive inhibition ability with the new cocktails. Their concentrations were set identically to those which were "fixed" in the previous protocols. In other words, 8X10^-6M of the vehicle was added to the culture tube with 1X10^-6 M of Z-FR-AFC and 1X10^-6 M of Z-FAR-AFC. Active protease was added last at a concentration that was 50 times less than the concentration of the high Vmax substrate (to ensure saturating conditions).
In similar experimental fashion, a 4.4%, 5.9%, and 7.4% cocktail were tested with each of the promising vehicles. Each percentage point represented an increase by one substrate. Each of the individual components in the cocktail were added at 1X10^-6 M each, to 8X10^-6 M of the vehicle. The composition of the cocktails was as follows: 4.4% cocktail: Z-FR-AFC, Z-FAR-AFC, and Z-AAK-AFC (third highest cleaved substrate); 5.9% cocktail: Z-FR-AFC, Z-FAR-AFC, Z-AAK-AFC, and AP-AFC (fourth highest cleaved substrate); 7.4% cocktail: […], Z-FAR-AFC, Z-AAK-AFC, AP-AFC, and Z-VLR-AFC. We stopped at this number of substrates in the cocktail, since confidence was obtained that inhibitory potential of vehicles could be "diluted out."
Finally, a manageable set of candidate vehicles was determined. […]

[2] = system: purified Taenia solium cysteine protease; assay: Substrate cleavage screen of AFC-linked synthetic substrates (Step II), purified protease; type: biochemical; conditions: 1 ug purified protease, 1 ug substrate, Citrate pH 4.9 with 0.01 M cysteine, 18 h, 37 °C
Procedure: In this step, the most efficacious substrate for detection of the cysteine protease (high Kcat substrate) was determined in vitro along with those substrates which were not well cleaved (low kcat substrates). From this point forth, the following conditions refer to all assays: "assay buffer" refers to 0.4 M Citrate, pH 4.9 (the pH optima of the protease). Incubation time was 18 hours at 37°C. These conditions were determined by our preliminary data to be best for kinetic evaluation of the protease. […] The experiments were conducted in […] Borosilicate mini-culture tubes (Fisher Scientific), and a fluorometer (Turner) was employed for detection of AFC cleavage.
Approximately 1 ug (or a proteolytically detectable amount) of the purified target cysteine protease was incubated individually, with 1 ug of each of the available substrates in 500 uL of assay buffer. During this setup, the substrate was pre-incubated in the assay buffer for a short period of time (20 minutes) in order to reach an equilibrated status before the addition of the protease. Cleavage assessments were based upon the property of the protease to cleave synthetic peptide substrates linked at the C-terminus to 7-Amino-4-Trifluoromethyl Coumarin (AFC) as previously described. AFC linked tripeptides, dipeptides, and monopeptides, (with a variety of permutations at P3-P1) were available from Enzyme Systems Products (Livermore, CA), and were used as the source of the subset. Following incubation of enzyme preparations overnight (18 h, 37 °C) with peptide in assay buffer (Citrate, pH 4.9, supplemented with 0.01 M cysteine), free AFC concentrations were measured fluorometrically (excitation 405 nm, emission 505 nm). The proteolytic cleavage released the AFC group, which was measurable as a free molecule by a standard fluorometer and converted into molar quantities, based upon a previously established standard curve. The simplicity of AFC detection by the fluorometer was a key factor which quickened and simplified the procedures.
In the assay, 1 ug of the purified Taenia cysteine protease was added to a saturating amount of Z-Phe-Arg-AFC (4X10^-5 M) in assay buffer. The experiment was conducted in triplicate and repeated at least 5 times until we were certain that variability in AFC cleavage was not statistically significant.
(§3) Vmax was calculated for the cleavage of substrates by the purified target protease and Vmax was calculated for substrates cleaved by the crude mix protease using conventional kinetic modeling calculations already described in the art.

[3] = system: purified Taenia solium cysteine protease; assay: Competitor assay of low Vmax substrates (vehicles) against high Vmax substrate cocktails (Step III), purified protease; type: biochemical; conditions: robustness of inhibition
Taenia solium crude mix [4] = assay: Competitor assay of vehicles against high Vmax substrate cocktails (Step III), crude mix; type: biochemical
Procedure: Step III for a crude mix proceeds it would for a purified protease, except that Vm is used instead of kcat.
as §1, §2
One of the most intriguing findings in this experiment was that a highly similar inhibition pattern for the competitor assay was noted when the crude mix was employed as the source of the target protease. Although there were some variations in the effects of inhibitor dilution, the most highly ranked vehicles remained inhibitory consistently in comparison to the profile with the target protease. The relative profile and composition of the top tiers of vehicles was identical. Z-LLL-AFC, Z-LLY-AFC, Mu-LY-AFC, Boc-VPR-AFC, Z-SY-AFC, Z-RR-AFC, Z-FLF-AFC, Z-LGR-AFC consistently presented as the top eight vehicles (Fig. 5b), respectively, based upon their V values (Table 2). […] It was notable that the three vehicles had very similar V values. […] As was mentioned, this vehicle along with Z-LLL-AFC and Z-LLY-AFC, were consistently the most inhibitory vehicles. The V values of the most inhibitory vehicle series are shown below in Table 2. Again, a clear break between the first and second tier vehicles could be noted with the V value. Table 2. Vehicles and V value rankings.

[5] = system: purified cysteine protease of Taenia solium; assay: Human IgG degradation inhibition test, western blot (Step IV), purified enzyme; type: biochemical; conditions: 18 hrs, 37°C, E 64 10^-6 M, vehicle 10^-3 M
Procedure: (§4) To conduct this assessment, a western blot was performed. IgG digestion was detected by incubating 20 ul of T. solium purified enzyme or T. so/ium extract with 1 ug of human IgG (Sigma, St. Louis) in a final volume of 100 ul of assay buffer. Exogenous thiol activation was assessed by incubating the assay in the presence or absence of cysteine. The catalytic class of the IgG protease was determined by pre-incubating the following proteinase inhibitors at their active concentrations, with the enzyme: E 64 (10^-6 M, cysteine proteinases), phenylmethylsulfonyl fluoride (PMSF) (10^-3 M, serine proteinases), pepstatin A (10^-6 M, aspartic proteinases), and 1,10 phenanthroline (10^-3 M, metalloproteinases), and the vehicle, Mu-Leu-Tyr-AFC (10^-3 M). After addition of IgG, the assay was incubated overnight (37°C, 18 hrs). Subsequently, 100 ul of the mixture was boiled in sodium dodecyl sulfate polyacrylamide gel electrophoresis (SDS-PAGE) sample buffer with 2% 2-mercaptoethanol, separated by 12.5% SDS-PAGE, and blotted onto a polyvinylidene difluoride membrane. Tris buffered saline containing 0.1% bovine serum albumin and 0.05% Tween 20 (TBS-BSA) was used to block nonspecific binding. […]

crude mix = assay: Human IgG degradation inhibition test, western blot (Step IV), crude mix; type: biochemical, Taenia solium; conditions: crude mix compared with purified proteinase; data not shown
Procedure: as §4

Taenia solium crude mix [6] = assay: Substrate cleavage screen of AFC-linked synthetic substrates (Step II), crude mix; type: biochemical; conditions: 0.4 M Citrate pH 4.9, 18 h, 37 °C
Procedure: In order to prepare the Taenia solium "crude mix", dry frozen Taenia solium cysts were obtained from 6-12 month old cysticercotic pigs from villages in an endemic area of porcine cysticercosis in Mexico. Metacestodes were carefully dissected from the parasitized tissues, washed three times with PBS, and lyophilized. Parasite extracts were prepared by suspending 0.1 grams of dry frozen cysts in 10 ml of extraction buffer (0.4 M citrate, pH 4.9). The cysts were vortexed for three five-minute intervals with intermittent incubations (5 min) at 4 °C. Particulate material was removed by centrifugation (20,000 x g, 120 min) and the resulting soluble fraction filtered ([…]). In assay buffers, the detectable amount of the crude mix, as described above, was employed and incubated with the target substrates.
as §3
Similar steps were employed here as they are for the purified protease. As will be noted, similar conclusions were noted on the identification of the protease inhibitor on the crude mix, and the identical hypothesis was derived (Fig. 4b). It is notable that the most cleaved substrates were Z-FR-AFC, Z-FAR-AFC, Z-AAK-AFC, AP-AFC, Z-VLR-AFC, respectively. This cleavage pattern, noted along with others, was highly similar to the cleavage pattern due to the purified protease. […] Moreover, non-cleaved substrates were also highly similar, although there were subtle variations in relative cleavage for the non-cleaved substrates. However, this would be expected as fluorometric readings will tend to have subtle variation at lower readings due to background effects.

`CC(C)[C@H](NC(=O)OC(C)(C)C)C(=O)N1CCC[C@H]1C(=O)N[C@@H](CCCNC(=N)N)C(=O)Nc1ccc2c(C(F)(F)F)cc(=O)oc2c1` [B-VPR-AFC, Boc-Val-Pro-Arg-AFC] (Boc-Val-Pro-Arg-{AFC}) was tested, and the “inhibition with the final cocktail (7.4%)” value ([1]; 7.4% cocktail = Z-FR-AFC + Z-FAR-AFC + Z-AAK-AFC + AP-AFC + Z-VLR-AFC, 1X10^-6 M each, vehicle 8X10^-6 M) was “less than 20%”, the “V Value” [1] was 0.116 and the “V Value” ([1]; listed as B-VPR-AC) was 0.120. For the same compound, the “cleavage of AFC-linked substrate (Vmax)” value [2] was “noncleavable”, the “percentage drop in inhibition between the 1.4% and the 7.4% cocktail” value [3] was 38% and the Tier (Taenia solium crude mix [4]) was 2 (The second tier was composed of those vehicles, which produced inhibition between 20-50% inhibition when in the presence of the 1.4% cocktail). The “V Value” (Taenia solium crude mix [4]; V = P * M) was 0.12.
`CC(C)CC(NC(=O)C1OC1C(=O)O)C(=O)NCCCCNC(=N)N` (stereo not shown) [E64, reference compound] was tested, and the “inhibition of cleavage of human IgG” value [5] was “Inhibition was noted”.
`CC(C)C[C@H](NC(=O)CCC(=O)O)C(=O)N[C@@H](Cc1ccc(O)cc1)C(=O)Nc1ccc2c(C(F)(F)F)cc(=O)oc2c1` [Suc-Leu-Tyr-AFC] (Suc-Leu-Tyr-{AFC}) was tested, and the “concentration required for inhibition of IgG cleavage” value (crude mix) was “greater” and the “inhibition of cleavage of human IgG” value [5] was “inhibit”.
For `C[C@H](NC(=O)OCc1ccccc1)C(=O)N[C@@H](C)C(=O)N[C@@H](CCCCN)C(=O)Nc1ccc2c(C(F)(F)F)cc(=O)oc2c1` [Z-AAK-AFC] (Cbz-Ala-Ala-Lys-{AFC}), the “cleavage of AFC-linked substrate (Vmax)” value (Taenia solium crude mix [6]) was “most cleaved”.
In the case of `C[C@H](NC(=O)[C@H](Cc1ccccc1)NC(=O)OCc1ccccc1)C(=O)N[C@@H](CCCNC(=N)N)C(=O)Nc1ccc2c(C(F)(F)F)cc(=O)oc2c1` [Z-FAR-AFC] (Cbz-Phe-Ala-Arg-{AFC}), the “cleavage of AFC-linked substrate (Vmax)” value (Taenia solium crude mix [6]) is reported as “most cleaved”.
`N=C(N)NCCC[C@H](NC(=O)[C@H](Cc1ccccc1)NC(=O)OCc1ccccc1)C(=O)Nc1ccc2c(C(F)(F)F)cc(=O)oc2c1` [Z-FR-AFC, Z-Phe-Arg-AFC, reference compound] (Cbz-Phe-Arg-{AFC}) was tested, and the “cleavage of AFC-linked substrate (Vmax)” value (Taenia solium crude mix [6]) was “most cleaved”, the “cleavage of AFC-linked substrate (Vmax)” value [2] was “cleaved” and the “cleavage of AFC-linked substrate (Vmax)” value ([2]; listed as Z-Phe-Arg-AFC) was “highest Vmax”.
With `CC(C)C[C@H](NC(=O)[C@@H](NC(=O)OCc1ccccc1)C(C)C)C(=O)N[C@@H](CCCNC(=N)N)C(=O)Nc1ccc2c(C(F)(F)F)cc(=O)oc2c1` [Z-VLR-AFC] (Cbz-Val-Leu-Arg-{AFC}) the “cleavage of AFC-linked substrate (Vmax)” value (Taenia solium crude mix [6]) was “most cleaved”.
